Laboratory results as given in patent US10844044B2 (Vanderbilt University, priority 2018, dated 2020).
Read-outs that look alike come from different tables or passages of the source.

Key:
[1] = system: MV4:11 human cancer cell lines; test: Anti-proliferative activity, CellTiter-Glo viability assay, 7 day protocol; format: cell-based; conditions: Homo sapiens, MV4-11, 168 h, MV4:11 cells, 7 day incubation, read-out: GI50 on cellular proliferation of MV4:11 human cancer cell lines
Procedure, shortened: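 Luminescent CellTiter-Glo readout after 7-day compound exposure of MV4:11 cells plated at 3600 cells/ml (final DMSO 0.1%). GI50 derived from three biological × three technical replicates, reported as mean ± S.E.M.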

WDR5 = WDR5 (Homo sapiens (Human), UniProt P61964); test: TR-FRET binding assay (displacement of 10mer-Thr-FAM probe from WDR5)
[2] = read-out: Ki for Inhibition of WDR5 by TR-FRET assay, TR-FRET, 10mer-Thr-FAM probe, WDR5-His tag 2 nM, pH 7.0
[3] = read-out: Ki for Inhibition of WDR5 by TR-FRET assay

| Structure (SMILES) | GI50 [1] | Ki (WDR5; [2]) | Ki (WDR5) | Ki (WDR5; [3]) |
| --- | --- | --- | --- | --- |
| COc1cc(OC)cc(C(NC(=O)c2cc(Cn3ccoc3=N)cc(-c3ncccc3C(F)(F)F)c2)C2CC2)c1 (stereo not drawn) [Example 235, N-(Cyclopropyl(3,5-dimethoxyphenyl)methyl)-3-((2-iminooxazol-3(2H)-yl)methyl)-5-(3-(trifluoromethyl)pyridin-2-yl)benzamide] | 3.1 µM | 0.0035 µM | – | – |
| COc1cc([C@@H](NC(=O)c2cc(Cn3ccoc3=N)cc(-c3cn(C)nc3C(F)(F)F)c2)C2CC2)ncc1F [Example 306, (S)—N-(Cyclopropyl(5-fluoro-4-methoxypyridin-2-yl)methyl)-3-((2-iminooxazol-3(2H)-yl)methyl)-5-(1-methyl-3-(trifluoromethyl)-1H-pyrazol-4-yl)benzamide] | 0.41 µM | – | < 0.0001 µM | – |
| Cc1cc([C@@H](NC(=O)c2cc(Cn3ccsc3=N)cc(-c3cn(C)nc3C(F)(F)F)c2)C2CC2)ncc1F [Example 325, (S)—N-(Cyclopropyl(5-fluoro-4-methylpyridin-2-yl)methyl)-3-((2-iminothiazol-3(2H)-yl)methyl)-5-(1-methyl-3-(trifluoromethyl)-1H-pyrazol-4-yl)benzamide] | < 0.1 µM | < 0.0001 µM | – | – |
| Cc1cc([C@@H](NC(=O)c2cc(Cn3ccn(C)c3=N)cc(C(C)C(F)(F)F)c2)C2CC2)ccc1F (stereo partly drawn) [Example 195, N—((S)-Cyclopropyl(4-fluoro-3-methylphenyl)methyl)-3-((2-imino-3-methyl-2,3-dihydro-1H-imidazol-1-yl)methyl)-5-(1,1,1-trifluoropropan-2-yl)benzamide] | 0.94 µM | < 0.0001 µM | – | – |
| Cc1ccnc(C(NC(=O)c2cc(Cn3ccn(C)c3=N)cc(-c3ccc(F)cc3OC(F)F)c2)C2CC2)c1 (stereo not drawn) [Example 71, N-(Cyclopropyl(4-methylpyridin-2-yl)methyl)-2′-(difluoromethoxy)-4′-fluoro-5-((2-imino-3-methyl-2,3-dihydro-1H-imidazol-1-yl)methyl)-[1,1′-biphenyl]-3-carboxamide] | 1.9 µM | 0.00033 µM | – | – |
| Cc1cc([C@@H](NC(=O)c2cc(Cn3ccn(C)c3=N)cc(C3CCC3)c2)C2CC2)ccc1F [Example 166, (S)-3-Cyclobutyl-N-(cyclopropyl(4-fluoro-3-methylphenyl)methyl)-5-((2-imino-3-methyl-2,3-dihydro-1H-imidazol-1-yl)methyl)benzamide] | 0.36 µM | < 0.0001 µM | – | – |
| Cc1cc([C@@H](NC(=O)c2cc(CN3CCOC3=N)cc(-c3ccc(F)cc3OC(F)F)c2)C2CC2)ccc1F [Example 273, (S)—N-(Cyclopropyl(4-fluoro-3-methylphenyl)methyl)-2′-(difluoromethoxy)-4′-fluoro-5-((2-iminooxazolidin-3-yl)methyl)-[1,1′-biphenyl]-3-carboxamide] | 0.14 µM | < 0.0001 µM | – | – |
| CC(C)n1cc(-c2cc(CN3CCOC3=N)cc(C(=O)N[C@H](c3ccc(F)c(F)c3)C3CC3)c2)c(C(F)(F)F)n1 [Example 286, (S)—N-(Cyclopropyl(3,4difluorophenyl)methyl)-3-((2-iminooxazolidin-3-yl)methyl)-5-(1-isopropyl-3-(trifluoromethyl)-1H-pyrazol-4-yl)benzamide] | < 0.1 µM | < 0.0001 µM | – | – |
| Cc1ccnc(C(NC(=O)c2cc(Cn3ccn(C)c3=N)cc(-c3cccnc3C)c2)C2CC2)c1 (stereo not drawn) [Example 37, N-(Cyclopropyl(4-methylpyridin-2-yl)methyl)-3-((2-imino-3-methyl-2,3-dihydro-1H-imidazol-1-yl)methyl)-5-(2-methylpyridin-3-yl)benzamide] | 3.8 µM | 0.0004 µM | – | – |
| Cc1cc([C@@H](NC(=O)c2cc(Cn3ccn(C)c3=N)cc(C3(C(F)(F)F)CC3)c2)C2CC2)ccc1F [Example 217, (S)—N-(cyclopropyl(4-fluoro-3-methylphenyl)methyl)-3-((2imino-3-methyl-2,3-dihydro-1H-imidazol-1-yl)methyl)-5-(1-(trifluoromethyl)cyclopropyl)benzamide] | < 0.1 µM | < 0.0001 µM | – | – |
| COc1cc([C@@H](NC(=O)c2cc(Cn3ccsc3=N)cc(-c3cn(C)nc3C(F)(F)F)c2)C2CC2)ccc1F [Example 327, (S)—N-(Cyclopropyl(4-fluoro-3-methoxyphenyl)methyl)-3-((2-iminothiazol-3(2H)-yl)methyl)-5-(1-methyl-3-(trifluoromethyl)-1H-pyrazol-4-yl)benzamide] | < 0.1 µM | < 0.0001 µM | – | – |
| COc1cc(CNC(=O)c2cc(Cn3ccn(C)c3=N)nc(-c3ccc(F)cc3C)c2)cc(OC)c1 [Example 365, N-(3,5-Dimethoxybenzyl)-2-(4-fluoro-2-methylphenyl)-6-((2-imino-3-methyl-2,3-dihydro-1H-imidazol-1-yl)methyl)isonicotinamide] | 6 µM | 0.00055 µM | – | – |
| CCn1cc(-c2cc(CN3CCCC3=N)cc(C(=O)N[C@H](c3ccc(F)c(Cl)c3)C3CC3)c2)c(C(F)(F)F)n1 [Example 338, (S)—N-((3-Chloro-4-fluorophenyl)(cyclopropyl)methyl)-3-(1-ethyl-3-(trifluoromethyl)-1H-pyrazol-4-yl)-5-((2-iminopyrrolidin-1-yl)methyl)benzamide] | < 0.1 µM | < 0.0001 µM | – | – |
| Cc1cc([C@@H](NC(=O)c2cc(CN3CCOC3=N)cc(-c3cc(C(F)(F)F)nn3C)c2)C2CC2)ccc1F [Example 287, (S)—N-(Cyclopropyl(4-fluoro-3-methylphenyl)methyl)-3-((2-iminooxazolidin-3-yl)methyl)-5-(1-methyl-3-(trifluoromethyl)-1H-pyrazol-5-yl)benzamide] | 0.1 µM | – | – | < 0.0001 µM |
| Cc1cc([C@@H](NC(=O)c2cc(Cn3ccn(C)c3=N)cc(-c3ccccc3C)c2)C2CC2)ccc1F [Example 201, (S)—N-(Cyclopropyl(4-fluoro-3-methylphenyl)methyl)-5-((2-imino-3-methyl-2,3-dihydro-1H-imidazol-1-yl)methyl)-2′-methyl-[1,1′-biphenyl]-3-carboxamide] | 0.14 µM | < 0.0001 µM | – | – |
| Cc1cc([C@@H](NC(=O)c2cc(Cn3ccn(C)c3=N)cc(-c3cccnc3C(F)(F)F)c2)C2CC2)ccc1F [Example 60, (S)—N-(cyclopropyl(4-fluoro-3-methylphenyl)methyl)-3-((2-imino-3-methyl-2,3-dihydro-1H-imidazol-1-yl)methyl)-5-(2-(trifluoromethyl)pyridin-3-yl)benzamide] | < 0.1 µM | < 0.0001 µM | – | – |
| Cc1cc([C@@H](NC(=O)c2cc(CN3CCOC3=N)cc(-c3cn(C(C)C)nc3C(F)(F)F)c2)C2CC2)ccc1F [Example 275, (S)—N-(Cyclopropyl(4-fluoro-3-methylphenyl)methyl)-3-((2iminooxazolidin-3-yl)methyl)-5-(1-isopropyl-3-(trifluoromethyl)-1H-pyrazol-4-yl)benzamide] | < 0.1 µM | < 0.0001 µM | – | – |
| Cc1cc([C@@H](NC(=O)c2cc(Cn3ccn(C)c3=N)cc(-c3ccc(F)cc3Cl)c2)C2CC2)ncc1F [Example 174, (S)-2′-Chloro-N-(cyclopropyl(5-fluoro-4-methylpyridin-2-yl)methyl)-4′-fluoro-5-((2-imino-3-methyl-2,3-dihydro-1H-imidazol-1-yl)methyl)-[1,1′-biphenyl]-3-carboxamide] | < 0.1 µM | < 0.0001 µM | – | – |
| Cc1cc([C@@H](NC(=O)c2cc(Cn3ccn(C)c3=N)cc(-c3cn(C)nc3C(F)(F)F)c2)C2CC2)ncc1F [Example 205, (S)—N-(Cyclopropyl(5-fluoro-4-methylpyridin-2-yl)methyl)-3-((2-imino-3-methyl-2,3-dihydro-1H-imidazol-1-yl)methyl)-5-(1-methyl-3-(trifluoromethyl)-1H-pyrazol-4-yl)benzamide] | < 0.1 µM | < 0.0001 µM | – | – |
| Cc1cc([C@@H](NC(=O)c2cc(CN3CCOC3=N)cc(-c3ccc(F)cc3C#N)c2)C2CC2)ccc1F [Example 282, (S)-2′-Cyano-N-(cyclopropyl(4-fluoro-3-methylphenyl)methyl)-4′-fluoro-5-((2-iminooxazolidin-3-yl)methyl)-[1,1′-biphenyl]-3-carboxamide] | 0.2 µM | 0.00021 µM | – | – |
| Cc1ccnc(C(NC(=O)c2cc(Cn3ccn(C)c3=N)cc(-c3ccc(F)nc3C)c2)C2CC2)c1 (stereo not drawn) [Example 3, N-(Cyclopropyl(4-methylpyridin-2-yl)methyl)-3-(6-fluoro-2-methylpyridin-3-yl)-5-((2-imino-3-methyl-2,3-dihydro-1H-imidazol-1-yl)methyl)benzamide] | 0.55 µM | < 0.0001 µM | – | – |
| CCn1cc(-c2cc(Cn3ccsc3=N)cc(C(=O)N[C@H](c3ccc(Cl)c(F)c3)C3CC3)c2)c(C(F)(F)F)n1 [Example 324, (S)—N-((4-Chloro-3-fluorphenyl)(cyclopropyl)methyl)-3-(1-ethyl-3-(trifluoromethyl)-1H-pyrazol-4-yl)-5-((2-iminothiazol-3(2H)-yl)methyl)benzamide] | < 0.1 µM | – | – | < 0.0001 µM |
| Cc1ccnc([C@@H](NC(=O)c2cc(Cn3ccn(C)c3=N)cc(-c3ccc(F)cc3C(F)(F)F)c2F)C2CC2)c1 [Example 120, (S)—N-(Cyclopropyl(4-methylpyridin-2-yl)methyl)-2,4′-difluoro-5-((2-imino-3-methyl-2,3-dihydro-1H-imidazol-1-yl)methyl)-2′-(trifluoromethyl)-[1,1′-biphenyl]-3-carboxamide] | 0.22 µM | < 0.0001 µM | – | – |
| CCn1cc(-c2cc(Cn3ccoc3=N)cc(C(=O)NCc3ccc(F)c(C)c3)c2)c(C(F)(F)F)n1 [Example 294, 3-(1-Ethyl-3-(trifluoromethyl)-1H-pyrazol-4-yl)-N-(4-fluoro-3-methylbenzyl)-5-((2-iminooxazol-3(2H)-yl)methyl)benzamide] | < 0.1 µM | – | – | < 0.0001 µM |
